Reference: US20240415825A1, “COMPOUNDS FOR THE TREATMENT OF MALARIA” (FUNDACIÓ INSTITUT DE BIOENGINYERIA DE CATALUNYA, priority 2021, published 2024)
Where two headings read alike, the source gives them in different places.

Columns and labels:
P. falciparum 3D7 strain = experiment: P. falciparum growth inhibition assay (3D7 strain); type: cell-based, Plasmodium falciparum
Procedure: After the synchronization process, a new culture at 1.5% parasitemia and 2% hematocrit was established and 150 μL aliquots of it were transferred to 96-well plates.
The required amounts of peptides, antimalarial compounds and dyes were added in each well at different concentrations and in triplicates. A positive growth control of untreated parasites and a negative growth control of parasites treated with a lethal dose of chloroquine (1 μM) were also included.
Parasites were grown for 48 h, a complete replication cycle, in standard culturing conditions (5% O2, 5% CO2, and 90% N2 at 37° C.). After the incubation period, 3 μL of culture from each well were mixed with 197 μL of PBS containing 0.1 μM Syto 11 (Thermo Fisher Scientific Inc), to obtain a final concentration of ca. 1-10×10^6 cells/ml.
Parasitemia was assessed by flow cytometry using a LSRFortessa flow cytometer (BD Biosciences, San Jose, CA, USA) set up with the 4 lasers, 20 parameters standard configuration. The single-cell population was selected on a forward-side scatter scattergram.
Growth inhibition was calculated taking as reference values both the growth rate of the untreated culture and the growth rate of the culture treated with chloroquine.

[1] = tested on: human umbilical vein endothelial cell cultures; experiment: Cytotoxicity (CC50) and in vitro therapeutic index; type: cell-based; details: 50% cytotoxic concentration (CC50)/IC50 in 3D7 strain
[2] = Plasmodium falciparum, 3D7 strain, Example 8, read-out: IC50 in 3D7 strain

Row | IC50 (P. falciparum 3D7 strain; [2]) [µM] | Compound | antimalarial / antiplasmodial activity in vitro (P. falciparum 3D7 strain; 3D7 strain) | further results
1 | 0.25 | CCN(CC)c1ccc(/C=C/c2cc[n+](CCOCCOCCOCC[n+]3ccc(/C=C/c4ccc(N(CC)CC)cc4)c(C)c3)cc2C)cc1 [PRC-28, 1,1′-(3,6,9-trioxaundecane-1,11-diyl)bis{4-[(E)-4-(diethylamino)styryl]-3-methylpyridin-1-ium} dichloride] |  | 
2 | 0.14 | CCN(CC)c1ccc(/C=C/c2cc[n+](CCCCCCCC[n+]3ccc(/C=C/c4ccc(N(CC)CC)cc4)c(C)c3)cc2C)cc1.[Br-].[Br-] [PRC-8, 1,1′-(octane-1,8-diyl)bis{4-[(E)-4-(diethylamino)styryl]-3-methylpyridin-1-ium} dibromide] | potent antimalarial activity | 
3 | 0.12 | Cc1c[n+](CCCCCCCCCC[n+]2ccc(/C=C/c3ccc(N(C)C)cc3)c(C)c2)ccc1/C=C/c1ccc(N(C)C)cc1.[Br-].[Br-] [EMA357, 1,1′-(decane-1,10-diyl)bis{4-[(E)-4-(dimethylamino)styryl]-3-methylpyridin-1-ium} dibromide] | potent antimalarial activity | 
4 | 0.1 | CCN(CC)c1ccc(/C=C/c2cc[n+](CCCCCCCCCC[n+]3ccc(/C=C/c4ccc(N(CC)CC)cc4)c(Cl)c3)cc2Cl)cc1.[Br-].[Br-] [PRC-50, 1,1′-(decane-1,10-diyl)bis{3-chloro-4-[(E)-4-(diethylamino)styryl]pyridin-1-ium} dibromide] | potent antimalarial activity | 
5 |  | O=C(NCNc1c2c(nc3cc(Cl)ccc13)CCCC2)c1ccc2nc(-c3ccc(Cl)cc3)c3c(c2c1)NCCC3 [DP128, reference compound] |  | IC50 (P. falciparum 3D7 strain; Plasmodium falciparum, 3D7, 48 h, read-out: IC50 in 3D7 strain (μM) ± SEM): 0.65 ± 0.14 µM; Therapeutic index in vitro [1]: 75.4
6 | 0.05 | CCN(CC)c1ccc(/C=C/c2cc[n+](CCCCCCCCC[n+]3ccc(/C=C/c4ccc(N(CC)CC)cc4)c(C)c3)cc2C)cc1.[Br-].[Br-] [PRC-25, 1,1′-(nonane-1,9-diyl)bis{4-[(E)-4-(diethylamino)styryl]-3-methylpyridin-1-ium} dibromide] | potent antimalarial activity | IC50 (P. falciparum 3D7 strain; Plasmodium falciparum, 3D7 strain, read-out: IC50 in P. falciparum in vitro cultures): 0.047 µM
7 |  | Nc1c(/N=N/c2ccc(-c3ccc(/N=N/c4cc(S(=O)(=O)[O-])c5ccccc5c4N)cc3)cc2)cc(S(=O)(=O)[O-])c2ccccc12.[Na+].[Na+] [Congo Red, reference compound] | did not exhibit significant antiplasmodial activity | IC50 (P. falciparum 3D7 strain; 3D7 strain, 48 h, Table 2, read-out: IC50 in 3D7 strain (μM) ± SEM): > 15 µM
8 |  | Cc1ccc2c(c1)sc(-c1ccc(N(C)C)cc1)[n+]2C.[Cl-] [ThT, Thioflavin T, reference compound] | did not exhibit significant antiplasmodial activity | IC50 (P. falciparum 3D7 strain; Plasmodium falciparum, 3D7 strain, 48 h, Table 2, read-out: IC50 in 3D7 strain (μM) ± SEM): 1.57 ± 0.23 µM
9 | 0.54 | CCN(CC)c1ccc(/C=C/c2cc[n+](Cc3cccc(C[n+]4ccc(/C=C/c5ccc(N(CC)CC)cc5)c(C)c4)c3)cc2C)cc1 [PRC-31, 1,1′-[1,3-phenylenebis(methylene)]bis{4-[(E)-4-(diethylamino)styryl]-3-methylpyridin-1-ium} dibromide] |  | 
10 | 0.29 | Cc1c[n+](CCCCCCCCCC[n+]2ccc(/C=C/c3ccc(N4CCCC4)cc3)c(C)c2)ccc1/C=C/c1ccc(N2CCCC2)cc1 [EMA368, 1,1′-(decane-1,10-diyl)bis{3-methyl-4-[(E)-4-(pyrrolidin-1-yl)styryl]pyridin-1-ium} dibromide] |  | 
11 | 0.52 | Cc1c[n+](CCCCCCCCCC[n+]2ccc(/C=C/c3ccc(N(c4ccccc4)c4ccccc4)cc3)c(C)c2)ccc1/C=C/c1ccc(N(c2ccccc2)c2ccccc2)cc1 [EMA366, 1,1′-(decane-1,10-diyl)bis{4-[(E)-4-(diphenylamino)styryl]-3-methylpyridin-1-ium} dibromide] |  | 
12 | 0.06 | CCN(CC)c1ccc(/C=C/c2cc[n+](CCCCCCCCCCC[n+]3ccc(/C=C/c4ccc(N(CC)CC)cc4)c(C)c3)cc2C)cc1.[Br-].[Br-] [PRC-14, 1,1′-(undecane-1,11-diyl)bis{4-[(E)-4-(diethylamino)styryl]-3-methylpyridin-1-ium} dibromide] | potent antimalarial activity | 
13 | 0.11 | Cc1c[n+](CCCCCCCCCC[n+]2ccc(/C=C/c3ccc(N(C)CCC#N)cc3)c(C)c2)ccc1/C=C/c1ccc(N(C)CCC#N)cc1.[Br-].[Br-] [EMA359, 1,1′-(decane-1,10-diyl)bis{4-{(E)-4-[(2-cyanoethyl)methylamino]styryl}-3-methylpyridin-1-ium} dibromide] | potent antimalarial activity | 
14 | 0.2 | CCN(CC)c1ccc(/C=C/c2cc[n+](CCOCCOCC[n+]3ccc(/C=C/c4ccc(N(CC)CC)cc4)c(C)c3)cc2C)cc1 [PRC-20, 1,1′-(3,6-dioxaoctane-1,8-diyl)bis{4-[(E)-4-(diethylamino)styryl]-3-methylpyridin-1-ium} diiodide] |  | 
15 | 0.46 | CCN(CC)c1ccc(/C=C/c2cc[n+](Cc3ccc(C[n+]4ccc(/C=C/c5ccc(N(CC)CC)cc5)c(C)c4)cc3)cc2C)cc1 [PRC-29, 1,1′-[1,4-phenylenebis(methylene)]bis{4-[(E)-4-(diethylamino)styryl]-3-methylpyridin-1-ium} dibromide] |  | 
16 | 0.06 | CCN(CC)c1ccc(/C=C/c2cc[n+](CCCCCCCCCCCC[n+]3ccc(/C=C/c4ccc(N(CC)CC)cc4)c(C)c3)cc2C)cc1.[Br-].[Br-] [PRC-15, 1,1′-(dodecane-1,12-diyl)bis{4-[(E)-4-(diethylamino)styryl]-3-methylpyridin-1-ium} dibromide] | potent antimalarial activity | 
17 | 0.15 | CCN(CC)c1ccc(/C=C/c2cc[n+](CCCCCCCCCC[n+]3ccc(/C=C/c4ccc(N(CC)CC)cc4)cc3)cc2)cc1.[Br-].[Br-] [PRC-39, 1,1′-(decane-1,10-diyl)bis{4-[(E)-4-(diethylamino)styryl]pyridin-1-ium} dibromide] | potent antimalarial activity | 
18 | 0.42 | CCN(CC)c1ccc(/C=C/c2cc[n+](CCCC[n+]3ccc(/C=C/c4ccc(N(CC)CC)cc4)c(C)c3)cc2C)cc1 [PRC-5, 1,1′-(butane-1,4-diyl)bis{4-[(E)-4-(diethylamino)styryl]-3-methylpyridin-1-ium} dibromide] |  | 
19 | 0.1 | CCN(CC)c1ccc(/C=C/c2cc[n+](CCCCCCCCCC[n+]3ccc(/C=C/c4ccc(N(CC)CC)cc4)c(Br)c3)cc2Br)cc1.[Br-].[Br-] [PRC-42, 1,1′-(decane-1,10-diyl)bis{3-bromo-4-[(E)-4-(diethylamino)styryl]pyridin-1-ium} dibromide] | potent antimalarial activity | 

Row | Compound | IC50 (P. falciparum 3D7 strain; [2]) [µM] | antimalarial / antiplasmodial activity in vitro (P. falciparum 3D7 strain; 3D7 strain) | further results
20 | Cc1c[n+](CCCCCCCCCC[n+]2ccc(/C=C/c3ccc(N4CCOCC4)cc3)c(C)c2)ccc1/C=C/c1ccc(N2CCOCC2)cc1.[Br-].[Br-] [EMA377, 1,1′-(decane-1,10-diyl)bis{3-methyl-4-[(E)-4-morpholinostyryl]pyridin-1-ium} dibromide] | 0.06 | potent antimalarial activity | 
